Five molecules from PMC8388125, “Kinetic and Structural Characterization of the Self-Labeling Protein Tags HaloTag7, SNAP-tag, and CLIP-tag” (Biochemistry, 2021) can be followed below.

By Kd is commonly meant the free concentration of one partner at which half of the binding sites on the other are occupied at equilibrium, for simple one-to-one binding.

The target in assay [1] is T1, SNAP^C145A (Homo sapiens, UniProt P16455, A127T/A154D/C145A/C150Q/C62A/G131K/G132T/G153L/K125A/K32I/L33F/M134L/N157G/Q115S/Q116H/R128A/R135S/S151G/S152D/S159E).
T1 construct: made in house; host or cells: E. coli BL21(DE3)-pLysS
T1 sequence (P16455 1-182 K32I/L33F/C62A/Q115S/Q116H/K125A/A127T/R128A/G131K/G132T/M134L/R135S/C145A/C150Q/S151G/S152D/G153L/A154D/N157G/S159E limits assumed): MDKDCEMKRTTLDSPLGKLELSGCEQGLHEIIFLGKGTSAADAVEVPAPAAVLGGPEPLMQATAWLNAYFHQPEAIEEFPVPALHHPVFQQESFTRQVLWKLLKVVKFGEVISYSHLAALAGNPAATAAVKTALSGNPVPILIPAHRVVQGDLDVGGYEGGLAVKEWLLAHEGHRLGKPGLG
The assay can be described thus: Affinity of SNAP^C145A for nonfluorescent substrates via FP competition assay against CP-TMR. Particulars: for Kd: FP competition against CP-TMR, room temperature. The format is binding. Here is the method: Binding affinities of SNAP^C145A for BG, CP, BG-Ac, CP-Ac, and BC-Ac were obtained as previously described for HT7 by titrating 5 μM protein and 50 nM CP-TMR against nonfluorescent substrate concentrations ranging from 150 nM to 1.5 mM. Experimental conditions and data analysis were identical despite the fact that 1 mM DTT was added to the buffer and the assay was performed at room temperature.

Assay [2] deals with T2, HT7^D106A (Rhodococcus sp., UniProt P59336, A155T/A167V/A224E/C128F/C176G/D106A/D78G/E160K/E257K/G292T/H272N/K175M/K195N/L47V/L88M/N227D/P291S/S2A/S58T/T264A/V172T/Y273L/Y87F).
T2 construct: made in house; host or cells: E. coli BL21(DE3)-pLysS
T2 sequence (P59336 other isoform, or with tags, fused parts or gaps with the stated changes): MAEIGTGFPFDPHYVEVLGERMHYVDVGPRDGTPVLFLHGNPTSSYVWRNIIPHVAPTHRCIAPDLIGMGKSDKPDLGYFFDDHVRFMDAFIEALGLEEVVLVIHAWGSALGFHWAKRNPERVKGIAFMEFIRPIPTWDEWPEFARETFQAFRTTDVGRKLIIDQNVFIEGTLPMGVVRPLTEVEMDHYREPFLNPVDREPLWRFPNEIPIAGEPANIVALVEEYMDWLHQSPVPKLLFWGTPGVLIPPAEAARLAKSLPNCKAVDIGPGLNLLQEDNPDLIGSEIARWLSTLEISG
Nature of the assay: Affinity of HT7^D106A for CA substrates by fluorescence polarization. The format is binding. The protocol: Binding affinities of HT7^D106A or HOB^D106A for chloroalkane (CA) substrates were determined by fluorescence polarization (FP, eq 1) measurements using a microplate reader (Spark20M, Tecan Group AG, Männedorf, Switzerland). The fluorescent substrates (10 nM) were titrated against different protein concentrations (0–250 μM) in activity buffer supplemented with 0.5 g/L bovine serum albumin (BSA). Assays were performed in black low-volume nonbinding 384-well plates (Corning Inc., Corning, NY) with a final volume of 20 μL. Obtained FP values were averaged and fitted to a single-site binding model (eq 2) to estimate Kd values for each fluorescent substrate. The FP value of each dye fully reacted with the native HT7 was used to improve fitting of the upper plateau of the curves by adding an extra data point at a protein concentration of 0.1 M. [drawing 1] 1 where FP is the fluorescence polarization, I∥ is the fluorescence intensity parallel to the excitation light polarization, I⊥ is the fluorescence intensity perpendicular to the excitation light polarization, and G is the grating factor (G = I∥/I⊥). [drawing 2] 2 where FPmin is the fluorescence polarization of the free fluorophore (lower plateau), FPmax is the maximal fluorescence polarization of fully bound fluorophore (upper plateau), Kd is the dissociation constant, and [protein] is the protein concentration.
Free binding energies were calculated from Kd values according to eq 4: [drawing 4] 4 where ΔG is the free binding energy, R is the universal gas constant, T is the temperature, and Kd is the dissociation constant.

Assay [3] deals with T3, HaloTag7 (HT7) (Rhodococcus sp., UniProt P59336, A155T/A167V/A224E/C128F/C176G/D78G/E160K/E257K/G292T/H272N/K175M/K195N/L47V/L88M/N227D/P291S/S2A/S58T/T264A/V172T/Y273L/Y87F).
T3 construct: made in house; host or cells: E. coli BL21(DE3)-pLysS
T3 sequence (P59336 other isoform, or with tags, fused parts or gaps with the stated changes): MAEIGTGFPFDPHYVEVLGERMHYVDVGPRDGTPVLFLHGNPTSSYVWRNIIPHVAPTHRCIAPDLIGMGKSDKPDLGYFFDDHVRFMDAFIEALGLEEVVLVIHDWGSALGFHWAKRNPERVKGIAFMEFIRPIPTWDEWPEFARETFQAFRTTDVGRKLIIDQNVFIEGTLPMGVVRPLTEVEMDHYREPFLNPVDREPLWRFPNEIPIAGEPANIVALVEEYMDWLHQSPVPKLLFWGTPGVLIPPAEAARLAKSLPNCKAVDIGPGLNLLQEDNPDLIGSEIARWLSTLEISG
Nature of the assay: HT7 labeling kinetics via stopped flow (fluorescence anisotropy). The format is biochemical. The protocol:
Labeling kinetics of HT7 with CA-TMR, CA-JF549, CA-CPY, CA-LIVE580, and CA-JF669 and labeling kinetics of HOB with CA-TMR were measured by recording fluorescence anisotropy changes over time using a BioLogic SFM-400 stopped-flow instrument (BioLogic Science Instruments, Claix, France) in a single-mixing configuration at 37 °C. HT7 protein and substrates in activity buffer were mixed in a 1:1 stoichiometry to reach a recordable speed for these fast reactions and to increase the information content of the traces. Concentrations were varied from 0.125 to 1 μM. The anisotropy of the free substrate was measured to obtain a baseline.
(§1) Kinetic stopped-flow data were preprocessed using a custom R script.[36],[37] Recorded pretrigger time points were removed, and time points were adjusted to start at time zero. Values from replicates were averaged. The anisotropy of the free dye was calculated by averaging anisotropy values of the baseline measurements. Preprocessed data were fitted to a kinetic model (eqs 5 and 6) described by differential eqs 7–10 using the DynaFit software.[38] The anisotropy of the free dye and the mixing delay of the stopped-flow machine were set as fixed offset and delay parameters in DynaFit. It was assumed that the protein substrate complex and the reacted product are contributing equally to the anisotropy signal. […] Standard deviations (normal distribution verified) and confidence intervals of fitted parameters were estimated with the Monte Carlo method[39] with standard settings (N = 1000, 5% worst fits discarded). In the case of SNAP kinetics with BG-TMR, the substrate concentration was fitted by DynaFit to rule out quantification errors of the BG-quenched fluorophore. Accurate fitting of the concentration was ensured by including conditions in which protein is limiting and no maximum FP value was reached.
A general note: Polarisation of emitted light reports the rotation of a fluorescent probe.

Assay [4] has as its target T4, SNAP-tag (SNAP) (Homo sapiens, UniProt P16455, A127T/A154D/C150Q/C62A/G131K/G132T/G153L/K125A/K32I/L33F/M134L/N157G/Q115S/Q116H/R128A/R135S/S151G/S152D/S159E).
T4 construct: made in house; host or cells: E. coli BL21(DE3)-pLysS
T4 sequence (P16455 1-182 K32I/L33F/C62A/Q115S/Q116H/K125A/A127T/R128A/G131K/G132T/M134L/R135S/C150Q/S151G/S152D/G153L/A154D/N157G/S159E limits assumed): T1 sequence (P16455 1-182 K32I/L33F/C62A/Q115S/Q116H/K125A/A127T/R128A/G131K/G132T/M134L/R135S/C145A/C150Q/S151G/S152D/G153L/A154D/N157G/S159E limits assumed) with A145C
Nature of the assay: SNAP competitive labeling kinetics against BG-Alexa488. Format: biochemical. Particulars: nonfluorescent substrates, competition with BG-Alexa488. The protocol:
Competitive kinetics were measured by recording FP over time using a microplate reader in a manner analogous to that for HT7 competition kinetics described above using 100 nM BG-Alexa488 as the fluorescent substrate in SNAP-FP buffer.
Data were fitted to a simplified kinetic competition model (eqs 19 and 20) described by differential eqs 21–25 using DynaFit. The dead time of the measurements and baseline FP value were put in as fixed parameters. Standard deviations (normal distribution verified) and confidence intervals of fitted parameters were estimated with the Monte Carlo method with standard settings (N = 1000, 5% worst fits discarded). [drawing 19] 19 [drawing 20] 20 where P is the SLP protein, S is the fluorescent SLP substrate, I is the nonfluorescent SLP substrate (inhibitor), PS is the protein–fluorescent substrate conjugate, and PI is the protein–nonfluorescent substrate conjugate. [drawing 21] 21 [drawing 22] 22 [drawing 23] 23 [drawing 24] 24 [drawing 25] 25

Assay [5] addresses T5, hAGT (human O^6-alkylguanine-DNA alkyltransferase) (Homo sapiens, UniProt P16455).
T5 construct: StrepTag-II (N); enterokinase cleavage site (N); His10 (C); made in house; host or cells: E. coli BL21(DE3)-pLysS
T5 sequence (P16455 1-207): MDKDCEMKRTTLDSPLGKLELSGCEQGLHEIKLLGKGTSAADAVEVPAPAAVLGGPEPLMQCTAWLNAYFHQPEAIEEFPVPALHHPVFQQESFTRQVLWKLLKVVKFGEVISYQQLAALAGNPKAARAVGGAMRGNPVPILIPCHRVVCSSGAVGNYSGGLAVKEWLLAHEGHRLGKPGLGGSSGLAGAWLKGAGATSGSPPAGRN
Nature of the assay: hAGT labeling kinetics via microplate reader (FP over time). The format is biochemical. Here is the method: (§2) Labeling kinetics of SNAP and CLIP substrates were measured by recording FP over time using a microplate reader in a manner analogous to that of HT7 labeling kinetics described above with the following changes. The fluorescent substrate concentration was fixed to 20 nM, and protein concentrations were varied from 15 to 900 nM. Measurements were performed in SNAP-FP buffer.
(§3) Kinetic data from microplate reader assays were fitted to a simplified kinetic model (eq 13) described by differential eqs 14–16 using DynaFit. The dead time of the measurements and baseline FP value were put in as fixed parameters. Standard deviations (normal distribution verified) and confidence intervals of fitted parameters were estimated with the Monte Carlo method with standard settings (N = 1000, 5% worst fits discarded). In the case of BG, CP, and BC kinetics, the substrate concentration was fitted by DynaFit to rule out quantification errors of the BG, CP, or BC fluorophores. Accurate fitting of the concentration was ensured by including conditions under which protein is limiting and no maximum FP value was reached.

Assay [6] addresses T4, SNAP-tag (SNAP). Nature of the assay: SNAP labeling kinetics via stopped flow (fluorescence anisotropy). The format is biochemical. Conditions: model 2. The protocol:
Labeling kinetics of SNAP with BG-TMR were measured via stopped-flow in a manner analogous to that for HT7 kinetics described above; however, the final substrate concentration was fixed at 2 μM, and the protein concentration was varied from 1.875 to 50 μM. The activity buffer was supplemented with 1 mM DTT.
as §1

In assay [7] the target is T4, SNAP-tag (SNAP). The assay can be described thus: SNAP labeling kinetics via microplate reader (FP over time). The format is biochemical. Conditions: SNAP, plate reader, kinetic model 1. The protocol:
as §2, §3

The target in assay [8] is T6, CLIP-tag (CLIP) (Homo sapiens, UniProt P16455, A121V/A127T/A154D/C150Q/C62A/G131N/G132T/G153S/K125A/K32I/L33F/M134L/M60I/N157P/Q115S/Q116H/R128A/R135D/S151G/S152D/S159L/Y114E).
T6 construct: made in house; host or cells: E. coli BL21(DE3)-pLysS
T6 sequence (P16455 1-182 K32I/L33F/M60I/C62A/Y114E/Q115S/Q116H/A121V/K125A/A127T/R128A/G131N/G132T/M134L/R135D/C150Q/S151G/S152D/G153S/A154D/N157P/S159L limits assumed): T1 sequence (P16455 1-182 K32I/L33F/C62A/Q115S/Q116H/K125A/A127T/R128A/G131K/G132T/M134L/R135S/C145A/C150Q/S151G/S152D/G153L/A154D/N157G/S159E limits assumed) with M60I, Y114E, A121V, K131N, S135D, A145C, L153S, G157P, E159L
The assay can be described thus: CLIP labeling kinetics via microplate reader (FP over time). Format: biochemical. Particulars: CLIP, plate reader, kinetic model 1. The protocol: as §2, §3

SMILES strings stand for the structures. Changes are numbered by the printed parent chain. Values joined by “and” are separate entries in the source; they are usually repeats but may differ in a detail not shown here. Equal values may be shown once.

For the molecule `CC(=O)NCc1ccc(COc2nccc(N)n2)cc1` [BC-Ac], in assay [1], the “times lower affinity than for BG-Ac” value was 5 times and the Kd came to 416 µM.

Molecule `CN(C)c1ccc2c(-c3ccc(C(=O)NCCOCCOCCCCCCCl)cc3C(=O)[O-])c3ccc(=[N+](C)C)cc-3oc2c1` [CA-5-TMR] came in with a Kd in assay [2] of 39.4 µM.

In assay [3], `CN(C)c1ccc2c(c1)C(C)(C)C1=CC(=[N+](C)C)C=CC1=C2c1cc(C(=O)NCCOCCOCCCCCCCl)ccc1C(=O)[O-]` [CA-CPY, chloroalkane-PEG-carbopyronine] had a Kd of 0.046 µM. In assay [3] (HT7, stopped flow, model 2), the “k2 (± S.D.)” value is 9.9 s-1 and 9.86 (± 0.73) s-1; the “k-1 (± S.D.)” value is reported as 7.60 (± 0.98) s-1. Besides, the “fold decrease in affinity of the 5-substituted compared to the 6-substituted rhodamine substrate” value in assay [2] (HT7^D106A) is given as 22.7 fold.

As to `CC(=O)NCc1ccc(COc2cc(Cl)nc(N)n2)cc1` [CP-Ac], in assay [4], the “kapp (value ± standard deviation)” value is on record as “(3.45 ± 0.38) × 10^3 M^–1 s^–1”. Besides, binding in assay [1] was characterised by a dissociation constant (Kd) of 201 µM.

On to `CN(C)c1ccc2c(-c3cc(C(=O)NCc4ccc(COc5cc(Cl)nc(N)n5)cc4)ccc3C(=O)[O-])c3ccc(=[N+](C)C)cc-3oc2c1` [CP-TMR], for which, in assay [5] (hAGT vs SNAP), the “times slower labeling of hAGT than of SNAP” value is reported as 20 times. For the same molecule, the “kapp (value ± standard deviation)” value in assay [5] (hAGT, plate reader, model 1) was “(3.13 ± 0.01) × 10^3 M^–1 s^–1”. In addition, in assay [6], the “fold higher k–1 than BG-TMR” value was 8.8 fold, the “k2 (± S.D.)” value was 1.58 (± 0.04) s-1 and the “k-1 (± S.D.)” value was 8.96 (± 0.71) s-1. For the same molecule, the “kapp (value ± standard deviation)” value in assay [7] is given as “(7.69 ± 0.01) × 10^4 M^–1 s^–1”. Also, in assay [8], the “kapp (value ± standard deviation)” value is “(7.22 ± 0.04) × 10^0 M^–1 s^–1”.
